Measured values taken from the Deep4Chem optical property database.
Values belong to the compound of their own block, whether it stands above or below them.

Test: solvent given as SMILES

SMILES: COOCc1noc(-c2ccccc2)c1Br
emission maximum (in C1CCCCC1): 345 nm

SMILES: O=Cc1ccc(-c2ccc(C3=CCC(c4ccccc4)CC3)s2)s1 (configuration not stated)
emission maximum (in C1CCOC1): 446 nm | emission maximum (in CC#N): 483 nm | emission maximum (in CCCCCC): 443 nm | emission maximum (in CCO): 498 nm | emission maximum (in OCCOCCO): 506 nm | emission maximum (in c1ccncc1): 481 nm

SMILES: CCCCN(CCCC)c1ccc2c(c1)C#CC#Cc1cc(N(CCCC)CCCC)ccc1C#Cc1cc(c3cc1C#Cc1ccc(C(F)(F)F)cc1C#CC#Cc1cc(C(F)(F)F)ccc1C#C3)C#C2
emission maximum (in ClCCl): 551 nm | emission maximum (in c1ccccc1): 499 nm

SMILES: Cc1ccc(-c2nc(-c3ccc(O)cc3)[nH]c2-c2ccc(C)cc2)cc1
emission maximum (in CO): 395 nm

SMILES: CCOC(=O)CN1C(=O)C2=C(c3ccc(C#N)cc3)N(CC(=O)OCC)C(=O)C2=C1c1ccc(C#N)cc1
emission maximum (in CC#N): 549 nm | emission maximum (in CS(C)=O): 557 nm | emission maximum (in Cc1ccccc1): 558 nm

SMILES: N#Cc1cccc2ccccc12
emission maximum (in Cc1ccccc1): 341.02 nm

SMILES: CCN(CC)c1ccc(/C=C/C2=[O+][B-](F)(F)Oc3c2c(=O)oc2cc(N(CC)CC)ccc32)cc1
emission maximum (in C1CCCCC1): 556 nm | emission maximum (in C1COCCO1): 610 nm | emission maximum (in CC#N): 644 nm | emission maximum (in CC(C)=O): 636 nm | emission maximum (in CCO): 635 nm | emission maximum (in CCOC(C)=O): 617 nm | emission maximum (in CO): 637 nm | emission maximum (in CS(C)=O): 659 nm | emission maximum (in Cc1ccccc1): 597 nm | emission maximum (in ClC(Cl)Cl): 622 nm | emission maximum (in ClCCl): 634 nm | emission maximum (in OCC(O)CO): 654 nm | emission maximum (in OCCO): 653 nm

SMILES: CC1(C)c2ccccc2N(c2ccc(-c3ccc4c(c3)C(=O)c3ccc(-c5ccc(N6c7ccccc7C(C)(C)c7ccccc76)cc5)cc3C4=O)cc2)c2ccccc21
emission maximum (in Cc1ccccc1): 609 nm | emission maximum (in c1ccc2c(c1)c1ccccc1n2-c1ccc(-c2ccc(-n3c4ccccc4c4ccccc43)cc2)cc1): 564 nm

SMILES: CCCCCCCCCCCCC(CCCCCCCCCC)Cn1c2cc(/C=C/C=C(C#N)C#N)c3cccc4c5cccc6c(/C=C/C=C(C#N)C#N)cc1c(c65)c2c34 (configuration not stated)
emission maximum (in C1CCCCC1): 648 nm | emission maximum (in CC#N): 702 nm | emission maximum (in Cc1ccccc1): 668 nm | emission maximum (in ClCCl): 697 nm

SMILES: CN(C)c1ccc(/C=C/c2cc(/C=C/c3ccc(N(C)C)cc3)nc(N)n2)cc1
emission maximum (in Cc1ccccc1): 466 nm | emission maximum (in ClC(Cl)Cl): 511 nm

SMILES: CSC1=C(C)C2=C(c3ccc(C)cc3)c3c(C)c(Cl)c(C)n3[B-](F)(F)[N+]2=C1C
emission maximum (in C1CCOC1): 655 nm

SMILES: COc1cccc2cc(-c3ccc([N+](=O)[O-])cc3)c(=N)oc12
emission maximum (in C1CCOC1): 374 nm | emission maximum (in CC#N): 366 nm | emission maximum (in CS(C)=O): 392 nm | emission maximum (in ClC(Cl)Cl): 380 nm

SMILES: O=S(=O)([O-])c1ccccc1/C=C/c1ccc(-c2nnc(-c3ccc(/C=C/c4ccccc4S(=O)(=O)[O-])cc3)o2)cc1
emission maximum (in C1CCOC1): 415 nm | emission maximum (in CC(C)=O): 416 nm | emission maximum (in CN(C)C=O): 422 nm

SMILES: c1cncc(-c2ccc(-c3c4ccccc4c(-c4ccc(-c5cccnc5)cc4)c4ccccc34)cc2)c1
emission maximum (in ClCCl): 426 nm

Other lines, results leading:

emission maximum (in CCCCCCC): 482 nm
SMILES: c1ccc2c3c(ccc2c1)-c1cccc2c1c-3cc1ccccc12

emission maximum (in C1CCOC1): 412 nm | emission maximum (in CO): 426 nm
SMILES: CCOC(=O)C1=CN(c2ccccc2)C=C(C(=O)OCC)C1c1ccccc1

emission maximum (in CC#N): 504 nm
SMILES: C[n+]1cc2ccc3c[n+](C)c4ccccc4c3c2c2ccccc21

emission maximum (in CCO): 670 nm | emission maximum (in CO): 668 nm | emission maximum (in CS(C)=O): 675 nm | emission maximum (in O): 671 nm
SMILES: CN1/C(=C/C=C(/C=C/c2sc3ccccc3[n+]2C)c2cc(F)cc(F)c2)Sc2ccccc21

emission maximum (in C1CCOC1): 488 nm | emission maximum (in CC#N): 499 nm | emission maximum (in ClC(Cl)Cl): 494 nm | emission maximum (in ClCCl): 496 nm
SMILES: COc1cc(/C=C/c2nc3ccccc3s2)c(OC)cc1/C=C/c1nc(C)nc(C)n1

emission maximum (in CCO): 569 nm | emission maximum (in O): 578 nm
SMILES: CN(C)c1ccc2c(-c3ccc(C(=O)[O-])cc3C(=O)[O-])c3ccc(=[N+](C)C)cc-3oc2c1

emission maximum (in CC#N): 403 nm | emission maximum (in CCCCCC): 361 nm | emission maximum (in CO): 431 nm | emission maximum (in ClC(Cl)Cl): 383 nm
SMILES: c1ccc2c(c1)cc(-c1cc(-c3nccs3)nc(-c3nccs3)c1)c1ccccc12
